# ChEMBL document CHEMBL5620353, “Novel antifungal triazoles with alkynyl-methoxyl side chains: Design, synthesis, and biological activity evaluation” (Eur J Med Chem, 2023)
# Activity calls are given as the source filed them. The calls are words filed in the database; no cut-off is given here.
# Tests used:
# [1] = Selectivity index, ratio of IC50 for HUVEC cells to MIC for Candida glabrata 537; format: toxicity; conditions: human, HUVEC cells versus Candida glabrata 537; read-out: Selectivity Index
# [2] = tested on: Nakaseomyces glabratus; assay: Antifungal activity against Candida glabrata 537 assessed as inhibition of fungal growth incubated for 48 hrs by microbroth dilution method; format: functional
# [3] = tested on: Candida albicans; assay: Antifungal activity against fluconazole-resistant Candida albicans 904 assessed as inhibition of fungal growth incubated for 48 hrs by microbroth dilution method; format: functional
# [4] = tested on: Candida albicans; assay: Antifungal activity against Candida albicans assessed as increase in pseudohyphae at 16 ug/ml; format: functional, organism-based; conditions: dose 16.0 µg/ml
# [5] = tested on: Candida albicans; assay: Antifungal activity against Candida albicans SC5314 assessed as inhibition of fungal growth at 0.5 ug/ml incubated for 48 hrs by spot assay; format: functional, organism-based; conditions: dose 0.5 µg/ml
# [6] = tested on: Candida albicans; assay: Antifungal activity against Candida albicans SC5314 infected in Galleria mellonella larvae assessed as median survival time at 8 mg/kg measured after 10 days post inoculation; format: functional; conditions: time 10 day
# [7] = tested on: Saccharomyces cerevisiae; assay: Antifungal activity against recombinant Saccharomyces cerevisiae Y2300 overexpressing ScErg11 assessed as inhibition of fungal growth incubated for 48 hrs by microbroth dilution method; format: functional
# [8] = tested on: Saccharomyces cerevisiae; assay: Antifungal activity against recombinant Saccharomyces cerevisiae Y2721 overexpressing CpErg11 CpCpr assessed as inhibition of fungal growth incubated for 48 hrs by microbroth dilution method; format: functional
# [9] = tested on: Saccharomyces cerevisiae; assay: Antifungal activity against recombinant Saccharomyces cerevisiae Y2513 overexpressing ScErg11 Y140H assessed as inhibition of fungal growth incubated for 48 hrs by microbroth dilution method; format: functional
# [10] = tested on: Candida albicans; assay: Antibiofilm activity against Candida albicans SC5314 preformed biofilms at 64 ug/ml incubated for 24 hrs by XTT reduction assay relative to control; format: functional; set-up: scale not given: the % may be the effect or the level left; conditions: dose 64 µg/ml
# [11] = tested on: Candida albicans; assay: Antifungal activity against Candida albicans SC5314 infected in Galleria mellonella larvae assessed as protection against fungal infection at 2 mg/kg measured after 10 days post inoculation; format: functional, organism-based; conditions: time 10.0 day
# [12] = tested on: Cryptococcus neoformans; assay: Antifungal activity against Cryptococcus neoformans 32,609 assessed as inhibition of fungal growth incubated for 72 hrs by microbroth dilution method; format: functional
# [13] = tested on: Candida albicans; assay: Antifungal activity against Candida albicans SC5314 assessed as inhibition of fungal growth at 4 ug/ml measured after 12 hrs by optical density based method; format: functional, organism-based; conditions: dose 4.0 µg/ml
# [14] = tested on: Candida albicans; assay: Antifungal activity against Candida albicans SC5314 infected in Galleria mellonella larvae assessed as delay in time of larval death at 8 mg/kg measured after 10 days post inoculation; format: functional, organism-based; conditions: time 10.0 day
# [15] = tested on: Candida albicans; assay: Antifungal activity against Candida albicans assessed as reduction in hyphal length at 16 ug/ml; format: functional, organism-based; conditions: dose 16.0 µg/ml
# [16] = tested on: Candida albicans; assay: Antibiofilm activity against Candida albicans SC5314 preformed biofilms at 16 ug/ml incubated for 24 hrs by XTT reduction assay relative to control; format: functional; set-up: scale not given: the % may be the effect or the level left; conditions: dose 16 µg/ml
# [17] = Cytotoxicity against HUVEC cells assessed as cell survival at 128 ug/ml incubated for 24 hrs by CCK-8 assay relative to control; format: toxicity, cell-based; conditions: human, at 128 µg/mL, read-out: Survival
# [18] = tested on: Saccharomyces cerevisiae; assay: Antifungal activity against recombinant Saccharomyces cerevisiae Y570 overexpressing CaCdr1 assessed as inhibition of fungal growth incubated for 48 hrs by microbroth dilution method; format: functional
# [19] = tested on: Candida albicans; assay: Antifungal activity against Candida albicans 904 assessed as reduction in fungal growth and viability at 2 ug/ml incubated for 48 hrs by spot assay; format: functional, organism-based; conditions: dose 2.0 µg/ml
# [20] = tested on: Candida albicans; assay: Antifungal activity against Candida albicans SC5314 assessed as inhibition of fungal growth incubated for 48 hrs by microbroth dilution method; format: functional
# [21] = Selectivity index, ratio of IC50 for HUVEC cells to MIC for Candida albicans SC5314; format: toxicity; conditions: human, HUVEC cells versus Candida albicans SC5314; read-out: Selectivity Index
# [22] = tested on: Candida albicans; assay: Antifungal activity against Candida albicans 10231 assessed as inhibition of fungal growth incubated for 48 hrs by microbroth dilution method; format: functional
# [23] = tested on: [Candida] auris; assay: Antifungal activity against fluconazole-resistant Candida auris 919 assessed as inhibition of fungal growth incubated for 48 hrs by microbroth dilution method; format: functional; conditions: Candidozyma auris
# [24] = tested on: Candida tropicalis; assay: Antifungal activity against Candida tropicalis 8915 assessed as inhibition of fungal growth incubated for 48 hrs by microbroth dilution method; format: functional
# [25] = tested on: Saccharomyces cerevisiae; assay: Antifungal activity against recombinant Saccharomyces cerevisiae Y2374 overexpressing CgErg11 assessed as inhibition of fungal growth incubated for 48 hrs by microbroth dilution method; format: functional
# [26] = tested on: Nakaseomyces glabratus; assay: Antifungal activity against Candida glabrata 537 assessed as inhibition of fungal growth at 0.5 ug/ml incubated for 48 hrs by spot assay; format: functional, organism-based; conditions: dose 0.5 µg/ml
# [27] = tested on: Candida albicans; assay: Antifungal activity against fluconazole-resistant Candida albicans 904 assessed as inhibition of fungal growth at 0.5 ug/ml incubated for 48 hrs by spot assay; format: functional, organism-based; conditions: dose 0.5 µg/ml
# [28] = tested on: Saccharomyces cerevisiae; assay: Antifungal activity against recombinant Saccharomyces cerevisiae Y2459 overexpressing CaErg11 CaCpr assessed as inhibition of fungal growth incubated for 48 hrs by microbroth dilution method; format: functional
# [29] = tested on: Aspergillus fumigatus; assay: Antifungal activity against Aspergillus fumigatus 7544 assessed as inhibition of fungal growth incubated for 72 hrs by microbroth dilution method; format: functional
# [30] = tested on: Candida parapsilosis; assay: Antifungal activity against Candida parapsilosis 22019 assessed as inhibition of fungal growth at 0.5 ug/ml incubated for 48 hrs by spot assay; format: functional, organism-based; conditions: dose 0.5 µg/ml
# [31] = tested on: Candida albicans; assay: Antifungal activity against fluconazole-resistant Candida albicans 901 assessed as inhibition of fungal growth incubated for 48 hrs by microbroth dilution method; format: functional
# [32] = tested on: Candida albicans; assay: Inhibition of biofilm formation in Candida albicans SC5314 at 64 ug/ml incubated for 24 hrs by XTT reduction assay relative to control; format: functional
# [33] = tested on: Saccharomyces cerevisiae; assay: Resistance index, ratio of MIC for recombinant Saccharomyces cerevisiae Y525 overexpressing CaMdr1 to MIC for recombinant Saccharomyces cerevisiae Y2411 overexpressing ScErg11; format: functional
# [34] = tested on: Saccharomyces cerevisiae; assay: Antifungal activity against recombinant Saccharomyces cerevisiae Y2411 overexpressing ScErg11 assessed as inhibition of fungal growth incubated for 48 hrs by microbroth dilution method; format: functional
# [35] = tested on: Saccharomyces cerevisiae; assay: Antifungal activity against recombinant Saccharomyces cerevisiae Y2716 overexpressing CpErg11 Y132F CpCpr assessed as inhibition of fungal growth incubated for 48 hrs by microbroth dilution method; format: functional
# [36] = target: Lanosterol 14-alpha demethylase (Candida albicans (strain SC5314 / ATCC MYA-2876) (Yeast), UniProt P10613); assay: Inhibition of Lanosterol 14-alpha demethylase in Candida albicans SC5314 assessed as reduction in ergosterol level at 8 ug/ml incubated for 8 hrs by GC-MS analysis relative to control; conditions: at 8 µg/mL
# Sequence of Lanosterol 14-alpha demethylase (P10613 whole entry): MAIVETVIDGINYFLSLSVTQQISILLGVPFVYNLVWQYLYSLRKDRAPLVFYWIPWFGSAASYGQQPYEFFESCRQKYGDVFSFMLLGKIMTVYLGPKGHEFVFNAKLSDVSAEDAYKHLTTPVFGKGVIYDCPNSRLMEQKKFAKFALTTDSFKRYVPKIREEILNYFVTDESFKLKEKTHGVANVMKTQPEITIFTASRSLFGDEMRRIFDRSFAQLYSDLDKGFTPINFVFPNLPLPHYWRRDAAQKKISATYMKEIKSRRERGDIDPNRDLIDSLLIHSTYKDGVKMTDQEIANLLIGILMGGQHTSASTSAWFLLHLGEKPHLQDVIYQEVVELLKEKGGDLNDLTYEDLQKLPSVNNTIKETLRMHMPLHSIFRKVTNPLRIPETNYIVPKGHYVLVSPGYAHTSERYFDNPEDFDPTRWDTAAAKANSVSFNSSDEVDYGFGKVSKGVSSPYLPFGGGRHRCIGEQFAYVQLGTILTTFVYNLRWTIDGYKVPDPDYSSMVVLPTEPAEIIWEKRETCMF
# [37] = tested on: Candida albicans; assay: Antifungal activity against Candida albicans SC5314 assessed as reduction in fungal growth and viability at 2 ug/ml incubated for 48 hrs by spot assay; format: functional, organism-based; conditions: dose 2.0 µg/ml
# [38] = tested on: [Candida] auris; assay: Antifungal activity against fluconazole-resistant Candida auris 918 assessed as inhibition of fungal growth incubated for 48 hrs by microbroth dilution method; format: functional; conditions: Candidozyma auris
# [39] = tested on: Candida albicans; assay: Antibiofilm activity against Candida albicans SC5314 preformed biofilms at 4 ug/ml incubated for 24 hrs by XTT reduction assay relative to control; format: functional; set-up: scale not given: the % may be the effect or the level left; conditions: dose 4 µg/ml
# [40] = tested on: Candida albicans; assay: Antifungal activity against Candida albicans 10231 assessed as inhibition of fungal growth at 0.5 ug/ml incubated for 48 hrs by spot assay; format: functional, organism-based; conditions: dose 0.5 µg/ml
# [41] = tested on: [Candida] auris; assay: Antifungal activity against fluconazole-resistant Candida auris 891 assessed as inhibition of fungal growth incubated for 48 hrs by microbroth dilution method; format: functional; conditions: Candidozyma auris
# [42] = tested on: Saccharomyces cerevisiae; assay: Antifungal activity against recombinant Saccharomyces cerevisiae Y525 overexpressing CaMdr1 assessed as inhibition of fungal growth incubated for 48 hrs by microbroth dilution method; format: functional
# [43] = tested on: Pichia kudriavzevii; assay: Antifungal activity against Candida krusei 4996 assessed as inhibition of fungal growth incubated for 48 hrs by microbroth dilution method; format: functional
# [44] = tested on: [Candida] auris; assay: Antifungal activity against Candida auris 891 assessed as inhibition of fungal growth at 0.5 ug/ml incubated for 48 hrs by spot assay; format: functional, organism-based; conditions: Candidozyma auris, dose 0.5 µg/ml
# [45] = tested on: Candida parapsilosis; assay: Antifungal activity against Candida parapsilosis 22019 assessed as inhibition of fungal growth incubated for 48 hrs by microbroth dilution method; format: functional; conditions: Lodderomyces parapsilosis
# [46] = tested on: Saccharomyces cerevisiae; assay: Antifungal activity against recombinant Saccharomyces cerevisiae Y2301 overexpressing ScErg11 Y140F assessed as inhibition of fungal growth incubated for 48 hrs by microbroth dilution method; format: functional
# [47] = tested on: Saccharomyces cerevisiae; assay: Antifungal activity against recombinant Saccharomyces cerevisiae Y2462 overexpressing ScErg11 ScNcp1 assessed as inhibition of fungal growth incubated for 48 hrs by microbroth dilution method; format: functional
# [48] = tested on: Cryptococcus neoformans; assay: Antifungal activity against Cryptococcus neoformans 32,609 assessed as inhibition of fungal growth at 0.5 ug/ml incubated for 48 hrs by spot assay; format: functional, organism-based; conditions: dose 0.5 µg/ml
# [49] = tested on: Candida albicans; assay: Antifungal activity against Candida albicans SC5314 infected in Galleria mellonella larvae assessed as larval survival rate at 8 mg/kg measured after 10 days post inoculation relative to control; format: functional; conditions: SC5314, 240 h, time 10 day
# [50] = Cytotoxicity against HUVEC cells assessed as cell survival at <16 ug/ml incubated for 24 hrs by CCK-8 assay relative to control; format: toxicity, cell-based; conditions: human, dose < 16 µg/ml, read-out: Survival
# [51] = Hemolytic activity in rabbit RBC at 32 ug/ml incubated for 1 hr by absorbance based analysis; format: toxicity, cell-based, Oryctolagus cuniculus, Erythrocyte; conditions: rabbit red blood cells, at 32 µg/mL, read-out: Activity
structure (smiles),measurement,setting,value
OC(Cn1cncn1)(Cn1cncn1)c1ccc(F)cc1F [FLUCONAZOLE],selectivity ratio,[1],50
same,MIC,[2],1 µg/mL
same,MIC,[3],> 256 µg/mL
same,Activity,[4],Active
same,Activity,[5],inactive
same,MST,[6],10 days
same,MIC,[7],4 µg/mL
same,MIC,[8],4 µg/mL
same,MIC,[9],8 µg/mL
same,Activity,[10],33.39%
same,Activity,[11],Active
same,MIC,[12],2 µg/mL
same,Activity,[13],Active
same,Activity,[14],Active
same,Activity,[15],Active
same,Activity,[16],34.47%
same,"viability at 24 h, 128 ug/ml",[17],43.7%
same,MIC,[18],> 64 µg/mL
same,Activity,[19],Active
same,MIC,[20],0.5 µg/mL
same,selectivity ratio,[21],100
same,MIC,[22],> 64 µg/mL
same,MIC,[23],> 256 µg/mL
same,MIC,[24],> 64 µg/mL
same,MIC,[25],4 µg/mL
same,Activity,[26],inactive
same,Activity,[27],inactive
same,MIC,[28],2 µg/mL
same,MIC,[29],> 64 µg/mL
same,Activity,[30],inactive
same,MIC,[31],> 256 µg/mL
same,inhibition at 64 µg/mL,[32],26.1%
same,Ratio,[33],32
same,MIC,[34],1 µg/mL
same,MIC,[35],32 µg/mL
same,inhibition (INH),[36],~ 100%
same,Activity,[37],Active
same,MIC,[38],> 256 µg/mL
same,Activity,[39],31.38%
same,Activity,[40],inactive
same,MIC,[41],> 256 µg/mL
same,MIC,[42],32 µg/mL
same,MIC,[43],64 µg/mL
same,Activity,[44],inactive
same,MIC,[45],4 µg/mL
same,MIC,[46],8 µg/mL
same,MIC,[47],8 µg/mL
same,Activity,[48],inactive
same,survival at 8 mg/kg,[49],46.7%
C[C@@H]1[C@H](O)[C@@H](C)/C=C/C=C/C=C/C=C/C=C/C=C/C=C/[C@H](O[C@@H]2O[C@H](C)[C@@H](O)[C@H](N)[C@@H]2O)C[C@@H]2O[C@](O)(C[C@@H](O)C[C@@H](O)[C@H](O)CC[C@@H](O)C[C@@H](O)CC(=O)O[C@H]1C)C[C@H](O)[C@H]2C(=O)O [AMPHOTERICIN B],"viability at 24 h, 128 ug/ml",[17],26.1%
same,viability at 24 h,[50],50%
same,"hemolysis at 1 h, 32 ug/ml",[51],> 50%
